Assay [1] deals with epithelial tumor cell lines, HUVECs. Kind of assay: Apoptotic assay with gp 120 and Nef peptides. In kind it is cell-based, human. The text has this:
The nef protein was expressed and purified in the inventors' laboratory. overlapping 20 mer peptides encompassing the entire nef protein and overlapping 15 mer peptides encompassing the entire gp 120 protein were obtained from the NIH AIDS Research & Reference Reagent Program (McKesson HBC BioServices, MD) Other specific peptides designed from within gp 120 or nef were obtained from SigmaGenosys.
Apoptosis, Terminal Deoxynucleotidyl Transferase dUTP Nick-end Labeling (TUNEL) Assay
Apoptosis generates DNA free ends which can be labeled in situ using terminal deoxynucleotidyl-transferase (TdT), incorporating an exogenously added labeled nucleotide to the DNA strand. This label can then be visualized directly by fluorescence or indirectly using anti-FITC-peroxidase, and a calorimetric assay. Cells on coverslips were washed with PBS, and fixed for 30 minutes at RT with 4% paraformaldehyde, in PBS, pH 7.4. They were then washed with PBS, and permeabilized with 0.1% Triton X-100
for 10 minutes at room temperature (RT). The slides were rinsed twice with PBS, and air dried for 2 minutes. The manufacturer's procedure for TUNEL staining the slides was followed (manufacturer's procedure for the In Situ Cell Death Detection Kit, AP; Boehringer Mannheim, Indianapolis, Ind.). Total cell counts were determined by counterstaining fixed cultures with 20 μg/ml of Hoechst 33258. All specimens were observed by epifluorescence on a computer-controlled microscope system based on a Zeiss Axioskop microscope (Carl Zeiss, Thornwood, N.Y.), and the images were obtained and examined using a charged coupled device (CCD) camera, MagnaFire, model S99806 (Olympus American, Melville, N.Y.). Images were examined using Image-Pro Plus 4.1 for Windows (Media Cybernetics, Silver Springs, Md.) software.
Overlapping peptide sets obtained from the AIDS Reagent Bank were used in the apoptotic assay as disclosed above. Specific pg 120 and Nef peptides within those sets were identified as inducing apoptosis in epithelial tumor cell lines, as well as in HUVECs. Alternatively, these same peptides had no effect in primary mammary epithelium or in MDA-MB-468 tumor lines.

Another assay relates to MDA-MB-231, MCF7, DU4475. Briefly: Agarose gel electrophoresis/DNA fragmentation, CXCR4 expressing cell lines. The class given is cell-based, human. As to conditions: 10 mM (6.35 mg/ml) ceramide. On the procedure: Apoptosis Assay: Agarose Gel Electrophoresis/DNA Fragmentation
Untreated or treated cells were collected, and DNA was harvested from normal or cancer cell cultures. Briefly, the cells were washed with PBS, pelleted at 1600 g for 20 minutes at 4° C., and resuspended in 50 mM Tris-HCl, pH 7.5, 20 mM EDTA buffer at about 10^ 7 cells/ml. The cells were then treated 2× with lysis buffer: 1.0% NP-40 (Sigma, St. Louis, Mo.) in the same Tris/EDTA buffer at RT for 2 minutes followed, by centrifugation at 1600 g for 5 minutes. After the last spin, SDS was added to the supernatant to 1% final concentration, RNase A (Sigma, St. Louis, Mo.) was added to 5 mg/mil final concentration, and the solution incubated at 56° C. for 2 hours. Subsequently, protease K (Promega, Madison, Wis.) was added to the solution to 2.5. µg/ml and incubated at 37° C. for 2.5 hr. Ammonium acetate was added to 4 M final concentration, 0.7 volumes of isopropanol was added, the solution was put at −20° C. overnight followed by centrifugation at 14,000 rpm for 30 minutes. The pellets were washed twice with 70% ethanol, dried and resuspended in 10 mM Tris-HCl, pH […]. DNA samples, 18 µg per condition, were prepared in neutral loading buffer to a final concentration of 0.02% bromophenol blue, 5% glycerol, 0.1% SDS, and 50 µg of ethidium bromide, loaded onto a neutral agarose gel (1.7%), and run at50V for 2.5 hours. […]

The values that follow come from patent US7312305B2, “Tumor cytotoxicity induced by modulators of the CXCR4 receptor” (Morehouse School of Medicine, priority 2003, dated 2007).

On to “ALAETCONAWA [Seq. I.D. No. 8, reference compound]”, for which the “apoptotic/modulator properties of peptide or motif” value in assay [1] is “lost all apoptotic effects”.
Consider Ceramide, for which the “DNA laddering, positive control” value with MDA-MB-231, MCF7, DU4475 was “DNA laddering characteristic of apoptotic cells was observed”.
“GRAFYTT [Seq. I.D. No. 9, motif within the V3 loop of Gp 120, amino acids 315 to 321]”: in assay [1], the “apoptotic/modulator properties of peptide or motif” value is reported as “apoptosis-inducing motif”.
With GRAFYTTKY [Seq. I.D. No. 11], the “apoptosis relative to that observed from the full gp 120 protein” value in assay [1] (equivalent molar ration (9 mer peptide is 2% of the full protein)) is recorded as “about 60%”.
Take “NAACAWLEAQ [Seq. I.D. No. 7, 10 mer peptide spanning amino acids 50-60 of the Nef protein]”: the “apoptosis relative to that observed for the full Nef protein” value in assay [1] (equivalent molar ration (10 mer peptide is 5% the amount of full protein)) is ~100%.
